According to patent US20090012140A1, “Preparation of Telmisartan Salts with Improved Solubility” (LEK PHARMACEUTICALS D.D, priority 2004, published 2009):

How the values were obtained:
[1] = Amount dissolved after 30 minutes at 37° C. (50 mg of compound in 100 ml baker, stirring at 600/min); assay type: physicochemical; details: for C30 min: 30 minutes, 37° C., 600/min; for Solubility compared with sodium salt of telmisartan manufactured by lyophilization: comparison in words
Procedure: (§1) In order to prepare a pharmaceutical composition physical properties were measured. The solubility of the telmisartan of its salt in accordance with our invention surpasses the solubility of known forms of telmisartan, and are above 10 μg/ml in phosphate buffer pH=6.8 and above 50 μg/ml in a physiologically relevant medium if measured as above. […] The salts are also very soluble in water (i.e dissolving approximately 500 mg/mL of Na salt Form 2 produces a very viscous solution, which can hardly be stirred with a magnetic stirrer.

Solubility in water = assay type: physicochemical; details: produces a very viscous solution
Procedure: as §1

[2] = medium pH = 1.2, 50 mg in 100 ml
[3] = phosphate buffer pH = 6.8, 50 mg in 100 ml
[4] = physiologically relevant medium: phosphate buffer pH 6.76 + sodium taurocholate (2.5 mM) + lecitin (0.5 mM)

SMILES | C30 min [1, 2] [µg/mL] | C30 min [1, 3] [µg/mL] | C30 min [1, 4] [µg/mL] | Amount dissolving in water (Solubility in water) | Solubility compared with sodium salt of telmisartan manufactured by lyophilization ([1]; listed as crystalline sodium salt of telmisartan) | Solubility compared with sodium salt of telmisartan manufactured by lyophilization [1]
CCCc1nc2c(C)cc(-c3nc4ccccc4n3C)cc2n1Cc1ccc(-c2ccccc2C(=O)[O-])cc1.[Na+] [Na salt Form 2, Crystalline Na Salt of Telmisartane Form 2] | – | – | – | approximately 500 mg/mL | surpasses that of the sodium salt of telmisartan manufactured by lyophilization | –
CCCc1nc2c(C)cc(-c3nc4ccccc4n3C)cc2n1Cc1ccc(-c2ccccc2C(=O)[O-])cc1.[Na+] | – | – | – | – | – | substantially surpasses that manufactured by lyophilization
CCCc1nc2c(C)cc(-c3nc4ccccc4n3C)cc2n1Cc1ccc(-c2ccccc2C(=O)[O-])cc1.[Na+] [Amorphous Na salt of telmisartan, Na Salt of Telmisartan] | 394.6 | 29 | 167.3 | – | – | –

Continued, in another order:

C30 min [1, 2] [µg/mL] | C30 min [1, 3] [µg/mL] | C30 min [1, 4] [µg/mL] | Amount dissolving in water (Solubility in water) | SMILES | Solubility compared with sodium salt of telmisartan manufactured by lyophilization ([1]; listed as crystalline sodium salt of telmisartan) | Solubility compared with sodium salt of telmisartan manufactured by lyophilization [1]
>500 | 0.9 | 1.1 | – | CCCc1nc2c(C)cc(-c3nc4ccccc4n3C)cc2n1Cc1ccc(-c2ccccc2C(=O)O)cc1 [Form A, telmisartan] | – | –
– | 17.6 | 87.5 | – | CCCc1nc2c(C)cc(-c3nc4ccccc4n3C)cc2n1Cc1ccc(-c2ccccc2C(=O)O)cc1 [Amorphous telmisartan, telmisartan] | – | –
